According to ChEMBL document CHEMBL1145069, “Stereospecific synthesis of 5-substituted 2-bisarylthiocyclopentane carboxylic acids as specific matrix metalloproteinase inhibitors” (J Med Chem, 2003):
pIC50: −log10 of the molar value.

These compounds were tested against Matrix metalloproteinase-9 (Homo sapiens, UniProt P14780) (assay: Inhibitory activity against matrix metalloprotease-9 (MMP9)).
Matrix metalloproteinase-9, sequence (P14780 whole entry): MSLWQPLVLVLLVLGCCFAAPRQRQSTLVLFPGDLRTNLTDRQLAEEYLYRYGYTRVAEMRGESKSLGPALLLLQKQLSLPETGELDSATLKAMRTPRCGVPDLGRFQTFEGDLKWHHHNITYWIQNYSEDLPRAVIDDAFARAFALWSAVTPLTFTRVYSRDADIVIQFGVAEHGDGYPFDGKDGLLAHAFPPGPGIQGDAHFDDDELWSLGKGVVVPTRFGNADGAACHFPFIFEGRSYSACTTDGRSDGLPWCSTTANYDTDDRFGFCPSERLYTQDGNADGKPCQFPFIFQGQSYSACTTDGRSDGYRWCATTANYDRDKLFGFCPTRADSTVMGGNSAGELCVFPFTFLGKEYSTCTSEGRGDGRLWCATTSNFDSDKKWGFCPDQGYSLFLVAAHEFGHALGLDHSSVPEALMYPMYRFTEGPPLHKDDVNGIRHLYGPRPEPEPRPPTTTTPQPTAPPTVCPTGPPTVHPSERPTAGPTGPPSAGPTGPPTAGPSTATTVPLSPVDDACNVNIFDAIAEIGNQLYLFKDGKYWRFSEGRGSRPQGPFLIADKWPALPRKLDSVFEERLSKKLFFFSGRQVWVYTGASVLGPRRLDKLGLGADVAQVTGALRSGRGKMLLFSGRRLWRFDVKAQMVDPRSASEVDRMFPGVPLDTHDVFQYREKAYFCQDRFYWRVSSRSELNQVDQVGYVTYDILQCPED

Compound | pIC50
O=C(O)[C@H]1[C@H](CN2C(=O)c3ccccc3C2=O)CC[C@@H]1Sc1ccc(-c2ccccc2)cc1 | 7.12
O=C(O)[C@H]1[C@H](CN2NNc3ccsc3C2=O)CC[C@@H]1Sc1ccc(-c2ccc(Cl)cc2)cc1 | 7.21
O=C(O)[C@H]1[C@H](Cn2nc3n(c2=O)CCCCC3)CC[C@@H]1Sc1ccc(-c2ccc(Cl)cc2)cc1 | 5.42
O=C(O)[C@H]1[C@H](Cn2nnc3ccccc3c2=O)CC[C@@H]1S(=O)(=O)CCc1ccc(-c2ccc(Cl)cc2)cc1 | 6.88
O=C(O)[C@H]1[C@H](Cn2nc3ccccn3c2=O)CC[C@@H]1Sc1ccc(-c2ccc(Cl)cc2)cc1 | 7.43
O=C(O)[C@H]1[C@H](CN2C(=O)c3ccccc3C2=O)CC[C@@H]1S(=O)(=O)CCc1ccc(-c2ccc(F)cc2)cc1 | 7.33
O=C(O)[C@H]1[C@H](Cn2c(=O)nc3ccccn3c2=O)CC[C@@H]1Sc1ccc(-c2ccc(Cl)cc2)cc1 | 7.52
O=C(O)[C@H]1[C@H](Cn2nnc3ccccc3c2=O)CC[C@@H]1S(=O)(=O)c1ccc(-c2ccc(Cl)cc2)cc1 | 6.29

Further lines, results first:

pIC50 | Compound
7.51 | N#Cc1ccc(-c2ccc(S[C@H]3CC[C@@H](Cn4c(=O)nc5ccccn5c4=O)[C@@H]3C(=O)O)cc2)cc1
8.40 | CSc1ccc(-c2ccc(S[C@H]3CC[C@@H](Cn4nnc5ccccc5c4=O)[C@@H]3C(=O)O)cc2)cc1
< 4.00 | O=C(O)[C@H]1[C@H](Cn2nnc3ccccc3c2=O)CC[C@@H]1Sc1ccc(-c2c[nH]nn2)cc1
5.52 | O=C(O)[C@@H]1[C@@H](Cn2nnc3ccccc3c2=O)CC[C@H]1Sc1ccc(-c2ccc(Cl)cc2)cc1
7.80 | CSc1ccc(-c2ccc(S[C@H]3CC[C@@H](Cn4c(=O)nc5ccccn5c4=O)[C@@H]3C(=O)O)cc2)cc1
6.19 | O=C(O)[C@H]1[C@H](CN2NNc3nc[nH]c3C2=O)CC[C@@H]1Sc1ccc(-c2ccc(Cl)cc2)cc1
7.62 | N#Cc1ccc(-c2ccc(S[C@H]3CC[C@@H](Cn4nnc5ccccc5c4=O)[C@@H]3C(=O)O)cc2)cc1

Each compound was assayed against T1, Interstitial collagenase (Homo sapiens, UniProt P03956) (assay: Inhibitory activity against matrix metalloprotease-1 (MMP1)).
T1 sequence (P03956 whole entry): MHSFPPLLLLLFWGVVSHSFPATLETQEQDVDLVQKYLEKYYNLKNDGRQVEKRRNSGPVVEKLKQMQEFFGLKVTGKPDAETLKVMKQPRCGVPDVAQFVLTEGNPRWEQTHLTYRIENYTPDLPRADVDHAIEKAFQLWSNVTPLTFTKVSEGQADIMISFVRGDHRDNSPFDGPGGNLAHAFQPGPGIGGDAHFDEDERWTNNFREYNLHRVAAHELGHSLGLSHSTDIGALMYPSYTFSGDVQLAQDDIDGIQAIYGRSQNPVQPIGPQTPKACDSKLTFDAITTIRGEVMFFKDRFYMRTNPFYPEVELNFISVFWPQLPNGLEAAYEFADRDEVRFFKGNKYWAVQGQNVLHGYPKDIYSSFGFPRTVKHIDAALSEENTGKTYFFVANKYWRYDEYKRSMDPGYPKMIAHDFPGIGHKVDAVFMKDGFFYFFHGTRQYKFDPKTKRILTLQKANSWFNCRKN

Compound | pIC50
O=C(O)[C@H]1[C@H](CN2C(=O)c3ccccc3C2=O)CC[C@@H]1Sc1ccc(-c2ccccc2)cc1 | 7.03
O=C(O)[C@H]1[C@H](CN2NNc3ccsc3C2=O)CC[C@@H]1Sc1ccc(-c2ccc(Cl)cc2)cc1 | 5.36
O=C(O)[C@H]1[C@H](Cn2nc3n(c2=O)CCCCC3)CC[C@@H]1Sc1ccc(-c2ccc(Cl)cc2)cc1 | < 5.00
N#Cc1ccc(-c2ccc(S[C@H]3CC[C@@H](Cn4c(=O)nc5ccccn5c4=O)[C@@H]3C(=O)O)cc2)cc1 | < 6.00
O=C(O)[C@H]1[C@H](Cn2nnc3ccccc3c2=O)CC[C@@H]1S(=O)(=O)CCc1ccc(-c2ccc(Cl)cc2)cc1 | < 4.00
O=C(O)[C@H]1[C@H](Cn2nc3ccccn3c2=O)CC[C@@H]1Sc1ccc(-c2ccc(Cl)cc2)cc1 | 5.00
CSc1ccc(-c2ccc(S[C@H]3CC[C@@H](Cn4nnc5ccccc5c4=O)[C@@H]3C(=O)O)cc2)cc1 | < 5.00
O=C(O)[C@H]1[C@H](Cn2c(=O)nc3ccccn3c2=O)CC[C@@H]1Sc1ccc(-c2ccc(Cl)cc2)cc1 | < 5.00
O=C(O)[C@H]1[C@H](Cn2nnc3ccccc3c2=O)CC[C@@H]1Sc1ccc(-c2c[nH]nn2)cc1 | < 4.00
O=C(O)[C@@H]1[C@@H](Cn2nnc3ccccc3c2=O)CC[C@H]1Sc1ccc(-c2ccc(Cl)cc2)cc1 | 4.17
CSc1ccc(-c2ccc(S[C@H]3CC[C@@H](Cn4c(=O)nc5ccccn5c4=O)[C@@H]3C(=O)O)cc2)cc1 | 4.20
O=C(O)[C@H]1[C@H](CN2NNc3nc[nH]c3C2=O)CC[C@@H]1Sc1ccc(-c2ccc(Cl)cc2)cc1 | 5.18
N#Cc1ccc(-c2ccc(S[C@H]3CC[C@@H](Cn4nnc5ccccc5c4=O)[C@@H]3C(=O)O)cc2)cc1 | < 5.00
O=C(O)[C@H]1[C@H](Cn2nnc3ccccc3c2=O)CC[C@@H]1S(=O)(=O)c1ccc(-c2ccc(Cl)cc2)cc1 | < 4.00

These compounds were tested against 72 kDa type IV collagenase (Homo sapiens, UniProt P08253) (assay: Inhibitory activity against matrix metalloprotease-2 (MMP2)).
72 kDa type IV collagenase, sequence (P08253 whole entry): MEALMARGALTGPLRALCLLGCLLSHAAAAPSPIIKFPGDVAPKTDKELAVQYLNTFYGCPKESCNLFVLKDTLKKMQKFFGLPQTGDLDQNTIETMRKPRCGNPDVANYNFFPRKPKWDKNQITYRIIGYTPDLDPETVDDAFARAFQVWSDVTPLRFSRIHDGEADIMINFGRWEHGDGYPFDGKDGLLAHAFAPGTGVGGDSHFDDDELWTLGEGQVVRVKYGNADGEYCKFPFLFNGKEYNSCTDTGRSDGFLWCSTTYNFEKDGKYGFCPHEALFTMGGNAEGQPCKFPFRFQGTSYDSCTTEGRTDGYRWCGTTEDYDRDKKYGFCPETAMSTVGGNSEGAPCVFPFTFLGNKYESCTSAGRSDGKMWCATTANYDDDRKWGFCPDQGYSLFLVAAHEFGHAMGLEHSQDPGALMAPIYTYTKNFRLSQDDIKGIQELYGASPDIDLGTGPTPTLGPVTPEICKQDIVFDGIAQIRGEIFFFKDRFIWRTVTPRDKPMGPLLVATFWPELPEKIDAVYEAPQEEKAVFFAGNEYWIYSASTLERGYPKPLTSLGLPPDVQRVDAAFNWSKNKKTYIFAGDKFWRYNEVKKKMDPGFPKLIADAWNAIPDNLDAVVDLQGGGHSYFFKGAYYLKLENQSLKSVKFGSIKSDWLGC

Compound | pIC50
O=C(O)[C@H]1[C@H](CN2C(=O)c3ccccc3C2=O)CC[C@@H]1Sc1ccc(-c2ccccc2)cc1 | 7.62
O=C(O)[C@H]1[C@H](CN2NNc3ccsc3C2=O)CC[C@@H]1Sc1ccc(-c2ccc(Cl)cc2)cc1 | 7.70
O=C(O)[C@H]1[C@H](Cn2nc3n(c2=O)CCCCC3)CC[C@@H]1Sc1ccc(-c2ccc(Cl)cc2)cc1 | 5.77
O=C(O)[C@H]1[C@H](Cn2nnc3ccccc3c2=O)CC[C@@H]1S(=O)(=O)CCc1ccc(-c2ccc(Cl)cc2)cc1 | 6.42
O=C(O)[C@H]1[C@H](Cn2nc3ccccn3c2=O)CC[C@@H]1Sc1ccc(-c2ccc(Cl)cc2)cc1 | 7.60
O=C(O)[C@H]1[C@H](CN2C(=O)c3ccccc3C2=O)CC[C@@H]1S(=O)(=O)CCc1ccc(-c2ccc(F)cc2)cc1 | 7.12
O=C(O)[C@H]1[C@H](Cn2c(=O)nc3ccccn3c2=O)CC[C@@H]1Sc1ccc(-c2ccc(Cl)cc2)cc1 | 8.05
O=C(O)[C@H]1[C@H](Cn2nnc3ccccc3c2=O)CC[C@@H]1S(=O)(=O)c1ccc(-c2ccc(Cl)cc2)cc1 | 7.08

Results, then the compound that gave them:

pIC50 | Compound
7.70 | N#Cc1ccc(-c2ccc(S[C@H]3CC[C@@H](Cn4c(=O)nc5ccccn5c4=O)[C@@H]3C(=O)O)cc2)cc1
8.30 | CSc1ccc(-c2ccc(S[C@H]3CC[C@@H](Cn4nnc5ccccc5c4=O)[C@@H]3C(=O)O)cc2)cc1
< 4.00 | O=C(O)[C@H]1[C@H](Cn2nnc3ccccc3c2=O)CC[C@@H]1Sc1ccc(-c2c[nH]nn2)cc1
6.13 | O=C(O)[C@@H]1[C@@H](Cn2nnc3ccccc3c2=O)CC[C@H]1Sc1ccc(-c2ccc(Cl)cc2)cc1
7.85 | CSc1ccc(-c2ccc(S[C@H]3CC[C@@H](Cn4c(=O)nc5ccccn5c4=O)[C@@H]3C(=O)O)cc2)cc1
6.89 | O=C(O)[C@H]1[C@H](CN2NNc3nc[nH]c3C2=O)CC[C@@H]1Sc1ccc(-c2ccc(Cl)cc2)cc1
7.89 | N#Cc1ccc(-c2ccc(S[C@H]3CC[C@@H](Cn4nnc5ccccc5c4=O)[C@@H]3C(=O)O)cc2)cc1

What follows are compounds tested against Collagenase 3 (Homo sapiens, UniProt P45452) (assay: Inhibitory activity against matrix metalloprotease-13 (MMP13)).

Compound | pIC50
O=C(O)[C@H]1[C@H](CN2C(=O)c3ccccc3C2=O)CC[C@@H]1Sc1ccc(-c2ccccc2)cc1 | 7.18
O=C(O)[C@H]1[C@H](CN2NNc3ccsc3C2=O)CC[C@@H]1Sc1ccc(-c2ccc(Cl)cc2)cc1 | 6.88
O=C(O)[C@H]1[C@H](Cn2nc3n(c2=O)CCCCC3)CC[C@@H]1Sc1ccc(-c2ccc(Cl)cc2)cc1 | 8.29
O=C(O)[C@H]1[C@H](Cn2nnc3ccccc3c2=O)CC[C@@H]1S(=O)(=O)CCc1ccc(-c2ccc(Cl)cc2)cc1 | 8.55
O=C(O)[C@H]1[C@H](Cn2nc3ccccn3c2=O)CC[C@@H]1Sc1ccc(-c2ccc(Cl)cc2)cc1 | 7.49
O=C(O)[C@H]1[C@H](CN2C(=O)c3ccccc3C2=O)CC[C@@H]1S(=O)(=O)CCc1ccc(-c2ccc(F)cc2)cc1 | 6.53
O=C(O)[C@H]1[C@H](Cn2c(=O)nc3ccccn3c2=O)CC[C@@H]1Sc1ccc(-c2ccc(Cl)cc2)cc1 | 7.57
O=C(O)[C@H]1[C@H](Cn2nnc3ccccc3c2=O)CC[C@@H]1S(=O)(=O)c1ccc(-c2ccc(Cl)cc2)cc1 | 8.74

Now from value to compound:

pIC50 | Compound
7.51 | N#Cc1ccc(-c2ccc(S[C@H]3CC[C@@H](Cn4c(=O)nc5ccccn5c4=O)[C@@H]3C(=O)O)cc2)cc1
7.89 | CSc1ccc(-c2ccc(S[C@H]3CC[C@@H](Cn4nnc5ccccc5c4=O)[C@@H]3C(=O)O)cc2)cc1
< 4.00 | O=C(O)[C@H]1[C@H](Cn2nnc3ccccc3c2=O)CC[C@@H]1Sc1ccc(-c2c[nH]nn2)cc1
8.72 | O=C(O)[C@@H]1[C@@H](Cn2nnc3ccccc3c2=O)CC[C@H]1Sc1ccc(-c2ccc(Cl)cc2)cc1
6.71 | CSc1ccc(-c2ccc(S[C@H]3CC[C@@H](Cn4c(=O)nc5ccccn5c4=O)[C@@H]3C(=O)O)cc2)cc1
6.17 | O=C(O)[C@H]1[C@H](CN2NNc3nc[nH]c3C2=O)CC[C@@H]1Sc1ccc(-c2ccc(Cl)cc2)cc1
7.96 | N#Cc1ccc(-c2ccc(S[C@H]3CC[C@@H](Cn4nnc5ccccc5c4=O)[C@@H]3C(=O)O)cc2)cc1

The compounds below were run against Stromelysin-1 (Homo sapiens, UniProt P08254) (assay: Inhibitory activity against matrix metalloprotease-3 (MMP3)).
Stromelysin-1, sequence (P08254 whole entry): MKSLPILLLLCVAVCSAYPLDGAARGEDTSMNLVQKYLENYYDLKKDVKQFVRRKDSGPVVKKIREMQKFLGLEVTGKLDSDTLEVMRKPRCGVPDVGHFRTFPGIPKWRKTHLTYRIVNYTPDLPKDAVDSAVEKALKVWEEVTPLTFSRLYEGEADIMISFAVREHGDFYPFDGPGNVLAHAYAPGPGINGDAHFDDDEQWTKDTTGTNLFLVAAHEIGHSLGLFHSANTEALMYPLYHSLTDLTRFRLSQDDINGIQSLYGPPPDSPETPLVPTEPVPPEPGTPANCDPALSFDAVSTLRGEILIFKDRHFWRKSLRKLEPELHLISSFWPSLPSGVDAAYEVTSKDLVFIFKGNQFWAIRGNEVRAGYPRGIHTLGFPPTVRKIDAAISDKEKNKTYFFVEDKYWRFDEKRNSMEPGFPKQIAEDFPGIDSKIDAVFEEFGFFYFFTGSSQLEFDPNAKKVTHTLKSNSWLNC

Compound | pIC50
O=C(O)[C@H]1[C@H](CN2C(=O)c3ccccc3C2=O)CC[C@@H]1Sc1ccc(-c2ccccc2)cc1 | 6.56
O=C(O)[C@H]1[C@H](CN2NNc3ccsc3C2=O)CC[C@@H]1Sc1ccc(-c2ccc(Cl)cc2)cc1 | 6.67
O=C(O)[C@H]1[C@H](Cn2nc3n(c2=O)CCCCC3)CC[C@@H]1Sc1ccc(-c2ccc(Cl)cc2)cc1 | 4.74
O=C(O)[C@H]1[C@H](Cn2nnc3ccccc3c2=O)CC[C@@H]1S(=O)(=O)CCc1ccc(-c2ccc(Cl)cc2)cc1 | 6.60
O=C(O)[C@H]1[C@H](Cn2nc3ccccn3c2=O)CC[C@@H]1Sc1ccc(-c2ccc(Cl)cc2)cc1 | 6.74
O=C(O)[C@H]1[C@H](CN2C(=O)c3ccccc3C2=O)CC[C@@H]1S(=O)(=O)CCc1ccc(-c2ccc(F)cc2)cc1 | 6.50
O=C(O)[C@H]1[C@H](Cn2c(=O)nc3ccccn3c2=O)CC[C@@H]1Sc1ccc(-c2ccc(Cl)cc2)cc1 | 6.87
O=C(O)[C@H]1[C@H](Cn2nnc3ccccc3c2=O)CC[C@@H]1S(=O)(=O)c1ccc(-c2ccc(Cl)cc2)cc1 | 6.16

Next, values leading:

pIC50 | Compound
6.99 | N#Cc1ccc(-c2ccc(S[C@H]3CC[C@@H](Cn4c(=O)nc5ccccn5c4=O)[C@@H]3C(=O)O)cc2)cc1
7.68 | CSc1ccc(-c2ccc(S[C@H]3CC[C@@H](Cn4nnc5ccccc5c4=O)[C@@H]3C(=O)O)cc2)cc1
< 4.00 | O=C(O)[C@H]1[C@H](Cn2nnc3ccccc3c2=O)CC[C@@H]1Sc1ccc(-c2c[nH]nn2)cc1
5.28 | O=C(O)[C@@H]1[C@@H](Cn2nnc3ccccc3c2=O)CC[C@H]1Sc1ccc(-c2ccc(Cl)cc2)cc1
6.52 | CSc1ccc(-c2ccc(S[C@H]3CC[C@@H](Cn4c(=O)nc5ccccn5c4=O)[C@@H]3C(=O)O)cc2)cc1
7.68 | O=C(O)[C@H]1[C@H](CN2NNc3nc[nH]c3C2=O)CC[C@@H]1Sc1ccc(-c2ccc(Cl)cc2)cc1
8.30 | N#Cc1ccc(-c2ccc(S[C@H]3CC[C@@H](Cn4nnc5ccccc5c4=O)[C@@H]3C(=O)O)cc2)cc1
